Laboratory results: patent publication US20210315893A1 (Galapagos NV, priority 2017, published 2021)

Key:
S1PR2 = biological target: T1, S1PR2 (Homo sapiens, UniProt O95136); assay: S1PR2 binding assay (competition with radioactively labeled S1P, SpA); details: membranes from stable cell line over expressing S1PR2, SpA beads; read-out: S1P2 EC50 (nM), S1PR2 binding EC50
T1 construct: expressed in transfected cells
Outline: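 Scintillation proximity read-out after 2 h room-temperature incubation of compound, [3H]S1P and S1PR2-overexpressing cell membranes on WGA-coated beads. Buffer: 20 mM Tris pH 7.5, 100 mM NaCl, 10 mM MgCl2, 1 mM Na3VO4, 0.4% fatty-acid-free BSA; plates counted immediately after centrifugation.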

HFL-1 cells [1] = assay: IL8 assay in the presence of Human Serum Albumin; details: HFL1, read-out: HSA IL8 EC50
HFL-1 cells [2] = assay: IL-8 production assay (S1P induced IL-8); assay type: cell-based; details: Homo sapiens, HFL1; S1P (1 μM) induced IL-8 in HFL-1 cells, starvation medium without HSA; read-out: IL8 EC50
Outline: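 HFL-1 fibroblasts in low-serum medium were pretreated 1 h with a 10-point 1/3 series of compound starting at 30 μM (0.3% DMSO).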

[3] = biological target: T2, human GPCR sphingosine 1-phosphate receptor 2 (Homo sapiens, UniProt O95136); assay: S1PR2 antagonist Ca2+ flux assay; assay type: cell-based; details: antagonist mode, CHO-S1PR2 cells, S1P at EC80, Ca2+ fluorescence; read-out: S1P2 EC50 (nM), S1P2 antagonist EC50
T2 construct: host or cells: CHO
T2 sequence (O95136 whole entry): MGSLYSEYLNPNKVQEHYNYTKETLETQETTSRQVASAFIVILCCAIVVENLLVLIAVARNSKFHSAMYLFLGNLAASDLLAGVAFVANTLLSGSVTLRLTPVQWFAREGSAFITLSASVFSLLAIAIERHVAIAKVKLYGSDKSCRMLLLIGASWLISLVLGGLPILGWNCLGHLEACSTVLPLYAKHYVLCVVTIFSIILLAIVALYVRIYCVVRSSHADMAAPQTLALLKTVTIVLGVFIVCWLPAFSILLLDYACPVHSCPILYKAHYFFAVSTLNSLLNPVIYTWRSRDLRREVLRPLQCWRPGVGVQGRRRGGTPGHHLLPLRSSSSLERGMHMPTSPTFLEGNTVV
Outline: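 Antagonist mode: 15 min after compound addition, S1P (EC80) stimulates Fluo8-loaded, 1 h-starved CHO-S1PR2 cells, Ca2+ read over 3 min; a prior 3-min read checks compound agonism. EC50 from peak/baseline fluorescence ratio, normalised versus vehicle and S1P EC50 (antagonist) or EC100 (agonist).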

[4] = biological target: T3, human GPCR sphingosine 1-phosphate receptor 5 (Homo sapiens, UniProt Q9H228); assay: S1PR5 selectivity Ca2+ flux assay (antagonist readout); assay type: cell-based; details: CHO cells overexpressing human S1PR5 and Gq, agonist at EC80 (20 nM), read-out: S1P5 EC50 (nM), S1P5 antagonist EC50
T3 construct: host or cells: CHO
T3 sequence (Q9H228 whole entry): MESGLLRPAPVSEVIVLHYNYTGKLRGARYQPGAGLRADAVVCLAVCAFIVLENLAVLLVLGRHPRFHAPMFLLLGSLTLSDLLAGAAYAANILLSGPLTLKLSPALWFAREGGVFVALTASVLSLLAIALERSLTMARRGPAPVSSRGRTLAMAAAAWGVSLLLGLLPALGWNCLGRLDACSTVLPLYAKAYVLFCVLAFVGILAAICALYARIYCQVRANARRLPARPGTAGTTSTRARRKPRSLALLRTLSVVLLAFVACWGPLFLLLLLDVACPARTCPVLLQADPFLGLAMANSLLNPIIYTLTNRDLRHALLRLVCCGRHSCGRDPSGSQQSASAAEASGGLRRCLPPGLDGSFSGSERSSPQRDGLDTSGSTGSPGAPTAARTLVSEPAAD
Outline: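 Antagonist readout: after 15 min compound preincubation at 37° C, human S1PR5/Gq CHO cells loaded with Fluo 8 dye received an EC80 challenge of S1PR5-specific agonist, and fluorescence was recorded for 3 min. Maximal-over-background ratios, normalized as % inhibition, gave IC50 by logistic fit.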

[5] = biological target: T4, human GPCR sphingosine 1-phosphate receptor 1 (Homo sapiens, UniProt P21453); assay: S1PR1 selectivity Ca2+ flux assay (antagonist readout); assay type: cell-based; details: antagonist readout, CHO cells overexpressing human S1PR1 and Gq, S1P at EC80 (6 nM); read-out: S1P1 EC50 (nM), S1P1 antagonist EC50
T4 construct: host or cells: CHO
T4 sequence (P21453 whole entry): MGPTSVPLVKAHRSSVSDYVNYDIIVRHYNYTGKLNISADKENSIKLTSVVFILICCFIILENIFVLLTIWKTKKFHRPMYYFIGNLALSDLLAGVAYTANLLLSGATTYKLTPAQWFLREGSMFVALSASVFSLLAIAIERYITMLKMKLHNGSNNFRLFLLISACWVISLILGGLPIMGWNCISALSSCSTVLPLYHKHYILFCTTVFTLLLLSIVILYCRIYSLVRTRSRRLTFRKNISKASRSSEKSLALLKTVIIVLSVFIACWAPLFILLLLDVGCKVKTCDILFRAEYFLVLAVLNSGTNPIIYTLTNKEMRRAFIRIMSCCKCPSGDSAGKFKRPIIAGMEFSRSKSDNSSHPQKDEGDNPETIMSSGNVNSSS
Outline: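 Antagonist mode: S1P challenge follows 15 min compound preincubation at 37 °C. Cells are CHO stably expressing human S1PR1, serum-starved 1 h (0.1% FAF BSA), loaded with Fluo 8. Peak-over-baseline fluorescence ratio is normalized to positive/negative controls; IC50 from logistic curve fit.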

T1 sequence (O95136 whole entry): as the sequence (O95136 whole entry) above

| Compound | EC50 (S1PR2) [nM] | EC50 (HFL-1 cells [1]) [nM] | EC50 (HFL-1 cells [2]) [nM] | EC50 [3] [nM] | EC50 [4] [nM] | EC50 [5] [nM] |
| --- | --- | --- | --- | --- | --- | --- |
| N#Cc1cc2nc(Cc3nn(CC(=O)O)c(=O)c4ccccc34)cn2cc1OCC1CC1 [Compound 79, 2-[4-[[7-cyano-6-(cyclopropylmethoxy)imidazo[1,2-a]pyridin-2-yl]methyl]-1-oxo-phthalazin-2-yl]acetic acid] | 221 | 503 | 57.7 | 82.7 | 19800 | ≥ 19800 |
| N#Cc1cc2[nH]c(Cn3cc(C(=O)O)c(=O)c4ccccc43)nc2cc1OCC(F)F [Compound 80, 1-[[6-cyano-5-(2,2-difluoroethoxy)-1H-benzimidazol-2-yl]methyl]-4-oxo-quinoline-3-carboxylic acid] | 619 | 122 | 46.8 | 42.3 | 19800 | ≥ 19800 |
| CC(C(=O)O)n1nc(Cc2cn3cc(OCC4CC4)c(C#N)cc3n2)c2ccccc2c1=O (stereo not drawn) [Compound 81, 2-[4-[[7-cyano-6-(cyclopropylmethoxy)imidazo[1,2-a]pyridin-2-yl]methyl]-1-oxo-phthalazin-2-yl]propanoic acid] | 120 | 151 | 20 | 22.6 | 19800 | ≥ 19800 |
| O=C(O)C1(n2nc(Cn3cc4cc(OCC5CC5)c(Cl)cc4n3)c3ccccc3c2=O)CC1 [Compound 95, 1-[4-[[6-chloro-5-(cyclopropylmethoxy)indazol-2-yl]methyl]-1-oxo-phthalazin-2-yl]cyclopropanecarboxylic acid] | 208 | 1830 | 53.4 | 19.4 | 19800 | ≥ 19800 |
| COc1ccc2c(Cn3cc4cc(OCC5CC5)c(Cl)cc4n3)nn(C(C)C(=O)O)c(=O)c2c1 (stereo not drawn) [Compound 97, 2-[4-[[6-chloro-5-(cyclopropylmethoxy)indazol-2-yl]methyl]-7-methoxy-1-oxo-phthalazin-2-yl]propanoic acid] | 432 | 5700 | 60.5 | 53.4 | 19800 | ≥ 19800 |
| O=C(O)c1cn(Cc2nc3cc(OCC4CC4)c(C(F)(F)F)cc3[nH]2)c2ccccc2c1=O [Compound 106, (1-[[5-(cyclopropyl-methoxy)-6-(trifluoromethyl)-1H-benzimidazol-2-yl]methyl]-4-oxoquinoline-3-carboxylic acid)] | 14.1 | 98.9 | 1.86 | 3.45 | 19800 | 830 |
| O=C(O)Cn1nc(Cc2nc3cc(Cl)c(OCC4CC4)c(F)c3[nH]2)c2ccccc2c1=O [Compound 116, 2-[4-[[5-chloro-6-(cyclopropylmethoxy)-7-fluoro-1H-benzimidazol-2-yl]methyl]-1-oxo-phthalazin-2-yl]acetic acid] | 183 | 566 | 77.8 | 25.2 | 19900 | ≥ 19800 |
| O=C(O)Cn1nc(Cc2nc3cc(Cl)c(OCC4CC4)cc3[nH]2)c2c(c1=O)CCCC2 [Compound 117, 2-[4-[[5-chloro-6-(cyclopropylmethoxy)-1H-benzimidazol-2-yl]methyl]-1-oxo-5,6,7,8-tetrahydrophthalazin-2-yl]acetic acid] | 33.2 | 8.83 | 0.96 | 8.18 | 13200 | 1540 |

Continued by falling EC50 (S1PR2), values first:

| EC50 (S1PR2) [nM] | EC50 (HFL-1 cells [1]) [nM] | EC50 (HFL-1 cells [2]) [nM] | EC50 [3] [nM] | EC50 [4] [nM] | EC50 [5] [nM] | Compound |
| --- | --- | --- | --- | --- | --- | --- |
| 619 | 2280 | 78.9 | 37.4 | 19800 | ≥ 19800 | O=C(O)c1nn(Cc2cn3cc(OCC4CC4)c(Cl)cc3n2)c2ccccc2c1=O [Compound 85, 1-[[7-chloro-6-(cyclopropylmethoxy)imidazo[1,2-a]pyridin-2-yl]methyl]-4-oxo-cinnoline-3-carboxylic acid] |
| 459 | 2460 | 198 | 41.9 | 19800 | ≥ 19800 | O=C(O)c1cn(Cc2cn3cc(OCC4CC4)c(Cl)cc3n2)c2ccccc2c1=O [Compound 84, 1-[[7-chloro-6-(cyclopropylmethoxy)imidazo[1,2-a]pyridin-2-yl]methyl]-4-oxo-quinoline-3-carboxylic acid] |
| 178 | 324 | 283 | 149 | 19800 | ≥ 19800 | O=C(O)CN1CCC(n2nc(Cc3cn4cc(OCC5CC5)c(Cl)cc4n3)c3ccccc3c2=O)C1 (stereo not drawn) [Compound 87, 2-[3-[4-[[7-chloro-6-(cyclopropylmethoxy)imidazo[1,2-a]pyridin-2-yl]methyl]-1-oxo-phthalazin-2-yl]pyrrolidin-1-yl]acetic acid] |
| 52.9 | 7.56 | 0.986 | 3.49 | 19800 | 2150 | CC(C(=O)O)c1nn(Cc2nc3cc(OCC4CC4)c(C#N)cc3[nH]2)c2ccccc2c1=O (stereo not drawn) [Compound 107, 2-[1-[[6-cyano-5-(cyclopropylmethoxy)-1H-benzimidazol-2-yl]methyl]-4-oxo-cinnolin-3-yl]propanoic acid] |
| 33.2 | 154 | 6.74 | 3.48 | 19800 | ≥ 19800 | O=C(O)Cc1nn(Cc2cn3cc(OCC4CC4)c(Cl)cc3n2)c2cc(F)ccc2c1=O [Compound 101, 2-[1-[[7-chloro-6-(cyclopropylmethoxy)imidazo[1,2-a]pyridin-2-yl]methyl]-7-fluoro-4-oxo-cinnolin-3-yl]acetic acid] |
| 32.1 | 544 | 4.41 | 8.99 | 19800 | 13200 | CC(C(=O)O)n1nc(Cn2cc3cc(OCC4CC4)c(Cl)cc3n2)c2cc(C#N)ccc2c1=O (stereo not drawn) [Compound 92, 2-[4-[[6-chloro-5-(cyclopropylmethoxy)indazol-2-yl]methyl]-6-cyano-1-oxo-phthalazin-2-yl]propanoic acid] |
| 22.4 | 22.8 | 3.04 | 8.99 | 19800 | ≥ 19800 | CC(C(=O)O)n1nc(Cn2cc3cc(OCC4CC4)c(Cl)cc3n2)c2c(c1=O)CCCC2 (stereo not drawn) [Compound 93, 2-[4-[[6-chloro-5-(cyclopropylmethoxy)indazol-2-yl]methyl]-1-oxo-5,6,7,8-tetrahydrophthalazin-2-yl]propanoic acid] |
| 13.3 | 29.1 | 1.11 | 5.29 | 6610 | 4580 | O=C(O)c1cn(Cc2nc3cc(OCC4CC4)c(Cl)cc3[nH]2)c2ccccc2c1=O [Compound 90, 1-[[6-chloro-5-(cyclopropylmethoxy)-1H-benzimidazol-2-yl]methyl]-4-oxo-quinoline-3-carboxylic acid] |
| 9.21 | 5.89 | 1.54 | 2.94 | 19800 | 3080 | N#Cc1cc2[nH]c(Cn3nc(CC(=O)O)c(=O)c4ccccc43)nc2cc1OCC1CC1 [Compound 108, 2-[1-[[6-cyano-5-(cyclopropylmethoxy)-1H-benzimidazol-2-yl]methyl]-4-oxo-cinnolin-3-yl]acetic acid] |
